Calls of active or inactive are those of the source.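 How the source made its calls: active means compounds giving half or more protection of infected cells from virus-caused growth loss, again on retest; inactive means the rest.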 Where a SMILES comes first, the peptide text is derived from it.
Tested on: CEM cells HIV-1 protection, formazan growth assay
Test: NCI AIDS Antiviral Assay
Conditions: for IC50: measured here: growth of uninfected CEM cells
Procedure, shortened: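 Category rules: moderately active means at least 50% protection on retest, and confirmed active means 100% protection reproducibly. The underlying data came from a formazan growth assay in HIV-1-infected CEM cells.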

| SMILES | EC50 | IC50 | outcome |
| --- | --- | --- | --- |
| Cc1cnc(SCCN2CCN(C)CC2)nc1-c1cc2ccccc2s1 | > 646 µM | 1.29 µM |  |
| Oc1ccc2c(c1)CCc1c-2n(CCN2CCOCC2)c2ccc(O)cc12 | > 200 µM | 14.8 µM |  |
| O=C(OC1C=C=CS(=O)(=O)CC#C/C=C\1)c1cnc2ccccc2n1 (configuration not stated) | > 200 µM | 102 µM |  |
| CC(CN1CCCC1)C(O)(Cc1ccccc1)c1ccc(Cl)cc1 (configuration not stated) | > 200 µM | 30.9 µM |  |
| Nc1nccc(NCC2(CO)CCC2)n1 | > 200 µM | > 200 µM |  |
| CCCCCC=C(c1cc(I)c(OC)c(C(=O)OC)c1)c1cc(I)c(OC)c(C(=O)OC)c1 | > 200 µM | 166 µM |  |
| Cc1cn(C2CC(NC(=O)NO[Si](C)(C)C(C)(C)C)C(CO[Si](C)(C)C(C)(C)C)O2)c(=O)[nH]c1=O (configuration not stated) | > 200 µM | 95.5 µM |  |
| Cc1nc(C(N)=S)sc1C(=O)CC(=O)C(=O)Nc1ccccc1[N+](=O)[O-] |  |  | inactive |
| COC1/C=C/OC2(C)Oc3c(C)c(O)c4c(O)c(c(C=NNC(=O)c5ccc(N)cc5)c(O)c4c3C2=O)NC(=O)/C(C)=C/C=C/C(C)C(O)C(C)C(O)C(C)C(OC(C)=O)C1C (configuration not stated) | > 138 µM | 107 µM |  |
| CCc1c(O)nc(Nc2nc3ccccc3[nH]2)[nH]c1=O | > 200 µM | > 200 µM |  |
| CCC1(CC)COP(=S)(S)OC1 | > 200 µM | > 200 µM |  |
| C1CSCC2(COC2)CS1 | > 1410 µM | 1320 µM |  |
| Nc1ncnc2nc(C(O)C(O)C(O)CO)[nH]c12 (configuration not stated) | > 102 µM | > 102 µM |  |
| CC(=O)Nc1ccc(/C=C2\C(=O)NC(=S)N2/C=C(\C#N)c2ccc([N+](=O)[O-])cc2)cc1 | > 200 µM | 72.4 µM |  |
| COCCCNc1nc(N)c(C#N)c(C#N)c1C#N |  |  | inactive |
| CC1(C)OC2OC(COC(=O)c3ccccc3)C(=O)C2O1 (configuration not stated) | > 200 µM | 13.8 µM |  |
| NC(=O)N/N=C1/CC2CCCCC2c2ccccc21 (configuration not stated) | > 200 µM | 34.7 µM |  |
| N/N=C(\Cc1ccccc1)NN=C(N)N | > 457 µM | 389 µM |  |
| CC(O)c1c2c(cc3c1CC1(C3)Cc3cc4c(c(C(C)O)c3C1)CCC4)CCC2 (configuration not stated) | > 200 µM | 9.55 µM |  |
| c1cc(-c2nc3sc(-c4ccncc4)nc3s2)ccn1 | > 24.5 µM | > 24.5 µM |  |
| O=S(=O)(c1ccccc1)C(CN1CCCCC1)S(=O)(=O)c1ccccc1 |  |  | inactive |
| CCC(C)C(NC(=O)CNC(=O)C(C)NC(=O)CNC(=O)C(NC(=O)C(NC(=O)C(CO)NC(=O)C(Cc1cnc[nH]1)NC(=O)C(N)CCCCN)C(C)CC)C(C)CC)C(=O)NC(CCCCN)C(=O)NC(CCCCN)C(=O)NC(CCCN=C(N)N)C(=O)NC(Cc1ccccc1)C(=O)NC(CC(C)C)C(=O)NC(CCC(N)=O)C(=O)O (configuration not stated) (H-KHSIIGAGIKKRFLQ-OH; configuration not given here) |  |  | inactive |

| SMILES | EC50 | IC50 | outcome |
| --- | --- | --- | --- |
| Cn1cc([N+](=O)[O-])cc1C(=O)Nc1cc(C(=O)Nc2ccc(S(=O)(=O)O)c3cc(S(=O)(=O)O)ccc23)n(C)c1 | > 398 µM | 178 µM |  |
| Nc1nn2cnnc2s1 |  |  | inactive |
| Cc1cc(=O)c2c3c(ccc2[nH]1)Oc1ccccc1O3 | > 7.59 µM | > 7.59 µM |  |
| N#Cc1c(=N)cc2c3ccccc3oc3c(C#N)c(N)[nH]c1c32 | > 200 µM | 195 µM |  |
| OC1CCCCCCCCCCC1SCCCCl (configuration not stated) | > 200 µM | > 200 µM |  |
| CC(=O)Nc1ccc(C(=O)NN2C(=O)C(Cl)C2/C=C/c2ccccc2)cc1 (configuration not stated) | 135 µM | 166 µM |  |
| CC1=NN(c2ccccc2)C(=O)C1N=Nc1ccc(S(=O)(=O)Nc2cc(C)nc(C)n2)cc1 (configuration not stated) |  |  | inactive |
| CCn1c2ccccc2n2c(=O)c3c(c(C#N)c12)CCCC3 | > 200 µM | > 200 µM |  |
| CC(=O)c1ccc2c(c1)CC1(C2)Cc2ccc3c(c2C1=O)CCC3 (configuration not stated) | > 200 µM | 33.1 µM |  |
| COC(=O)C(C)S(=O)(=O)O (configuration not stated) | > 200 µM | > 200 µM |  |
| CC(C)C1=CC2=CCC3C(C)(CN)CCCC3(C)C2CC1CCN (configuration not stated) | > 100 µM | 1.48 µM |  |
| O=S1(=O)/C(=C\C2CCCCC2)c2c1c(-c1ccccc1)c1ccccc1c2-c1ccccc1 | > 49 µM | > 49 µM |  |
| O=C(O)c1ccc(O)c(N=Nc2cc(S(=O)(=O)O)c3ccccc3c2O)c1 | > 25.7 µM | > 25.7 µM |  |
| C/C(CCn1[nH]c(=O)ccc1=O)=N\Nc1ccc([N+](=O)[O-])cc1[N+](=O)[O-] |  | 20 µM | inactive |
| O=[N+]([O-])c1ccc(C2=Nc3ccccc3SC(c3ccccc3)C2)cc1 (configuration not stated) | > 27.5 µM | > 27.5 µM |  |
| CC1(C)CC(=O)c2c(nc(SSc3nc4c(c(-c5ccccc5)c3C#N)C(=O)CC(C)(C)C4)c(C#N)c2-c2ccccc2)C1 | > 200 µM | 89.1 µM |  |
| CN(C)CCN(C)CC(O)CO (configuration not stated) |  |  | inactive |
| CSc1c(C#N)c2n(c3ccccc13)c1ccccc1[n+]2C | > 100 µM | 6.76 µM |  |
| COC(=O)CNC(=O)CCSc1nnc(COc2ccc(Cl)cc2)n1-c1ccccc1 | > 200 µM | 33.9 µM |  |
| N#CC(NNC(=O)Cc1ccccc1)c1ccc(O)cc1 (configuration not stated) | > 891 µM | 245 µM |  |
| O=C1c2ccccc2-c2cccc3ccc(Cc4ccc5ccccc5c4)c1c23 | > 5.13 µM | > 5.13 µM |  |
| COC(=O)[C@]1(C)CCC[C@]2(C)C3=CC(=O)[C@@]4(C(C)C)O[C@H]4[C@]3(O)CC[C@@H]12 | > 72.4 µM | > 72.4 µM |  |

| SMILES | EC50 | IC50 | outcome |
| --- | --- | --- | --- |
| CC(C)(C)c1ccc(OC2CCO2)cc1 (configuration not stated) | > 34.7 µM | > 34.7 µM |  |
| O=S1(=O)c2ccccc2C(c2ccccc2)(c2ccccc2)N1c1ccccc1 | > 75.9 µM | 55 µM |  |
| CCN1CCCn2c(=S)[nH]c3cc(Br)cc1c32 | 57.5 µM | 97.7 µM |  |
| O=C1[C@H](Cc2ccccc2)C[C@H]2CO[C@H](c3ccccc3)N12 | > 200 µM | 38.9 µM |  |
| Cc1ccc(N=NC2Sc3nc4ccccc4n3C2=O)cc1 (configuration not stated) | > 200 µM | > 200 µM |  |
| CCN(CC)C(=O)Cc1c(C(=O)N(CC)CC)c(=O)nc2sccn12 | > 692 µM | > 692 µM |  |
| CC1=C(c2ccc(C)cc2)NC(=S)C(C)C(c2ccc(C)cc2)=N1 (configuration not stated) | > 200 µM | 97.7 µM |  |
| C[N+](C)(C)CC1CCCC(C[N+](C)(C)C)C1=NO (configuration not stated) |  |  | inactive |
| O=C1OC(C2Cc3ccc4c(c3C2=O)CCC4)c2ccccc21 (configuration not stated) | > 200 µM | 81.3 µM |  |
| Cc1ccc(C(=O)Nc2ccc(S(=O)(=O)O)c3cc(S(=O)(=O)O)cc(S(=O)(=O)O)c23)cc1NC(=O)c1cccc(N)c1 | > 200 µM | > 200 µM |  |
| COC(=O)c1cc(=O)nc(N/N=C/c2ccc(C)cc2)s1 | > 44.7 µM | 30.9 µM |  |
| NC(CSS(=O)(=O)O)=NCCCc1ccccc1 | > 200 µM | 110 µM |  |
| COc1ccc(C[C@H]2COC(=O)[C@@H]2Cc2ccc(O)c(O)c2)cc1OC | > 200 µM | 19.5 µM |  |
| CCCC/C(CC)=N/NS(=O)(=O)c1ccc(NC(C)=O)cc1 | > 398 µM | 288 µM |  |
| C/C(=N/NC(=S)Nc1ccc(Cl)cc1)c1cccc(/C(C)=N\NC(=S)Nc2ccc(Cl)cc2)n1 | > 200 µM | 6.76 µM |  |
| C/C(=N\O)c1ccc(S(=O)(=O)c2ccc([N+](=O)[O-])cc2)cc1 | > 200 µM | > 200 µM |  |
| Cc1nc2c(=O)n(-c3ccccc3)c(=O)n(-c3ccccc3)c2o1 | > 200 µM | > 200 µM |  |
| O=C1CCC2(CC1CCS(=O)c1ccccc1)OCCO2 (configuration not stated) | > 200 µM | > 200 µM |  |
| COC(=O)C1=CON2C3CC4CC(C3)CC(C4)C12C (configuration not stated) | > 200 µM | 135 µM |  |
| NC(=O)CCNC(=O)c1ccccc1SC(=O)NCCBr | 1.38 µM | 10 µM |  |
| COC(=O)C1c2c(c3ccccc3n2C(=O)OC)CCN2CCC1C(S(=O)(=O)c1ccccc1)C2=O (configuration not stated) | 363 µM | 447 µM |  |
| C[Si](C)(C)/C=C\CCNC=O | > 1450 µM | > 1450 µM |  |

| SMILES | EC50 | IC50 | outcome |
| --- | --- | --- | --- |
| NCCCCCCn1c(-c2ccc(Br)cc2)csc1=Nc1ccccc1 | > 200 µM | 3.55 µM |  |
| COC(=O)C1(C)C=CC(=O)C2(C)C1C(O)C1OC3CC(c4ccoc4)C(C)=C3C1(C)C2CC(=O)O (configuration not stated) | > 490 µM | > 490 µM |  |
| CC1=C(C(=O)Nc2ccccc2)C(c2ccc(N(C)C)cc2)C(C(=O)Nc2ccccc2)=C(C)N1 |  |  | inactive |
| CN(C(=O)C12C3(C(=O)C(C)(C)C)C4C5(C#N)C3C1(C(=O)C(C)(C)C)C5C42C(=O)C(C)(C)C)C(C)(C)C (configuration not stated) | > 52.5 µM | > 52.5 µM |  |
| COc1cc(C2=NC(C(C)C)CO2)c(OC)c(OC)c1OC (configuration not stated) | > 43.7 µM | > 43.7 µM |  |
| COC(O)C(=O)c1c2c(cc3c1CCC3)CCC2 (configuration not stated) | > 200 µM | 174 µM |  |
| COc1ccc(NC(C)=O)cc1N1C(=O)/C(=C\c2cccc(Oc3ccccc3)c2)SC1c1ccccc1 (configuration not stated) | > 200 µM | 18.6 µM |  |
| NC(=O)SCC(=O)Nc1ccc2cccc3c2c1CC3 |  |  | inactive |
| C#CC(C)(C)Oc1cc(O)c2c(=O)c3ccccc3n(C)c2c1 | > 23.4 µM | > 23.4 µM |  |
| CN(O)C(=O)CCCC(=O)NCC(C)(C)CNC(=O)CCCC(=O)N(C)O | > 200 µM | > 200 µM |  |
| COc1cc(N=O)c(N=O)cc1[N+](=O)[O-] | > 170 µM | 15.1 µM |  |
| COC(=O)CC12C=CC3(OO1)C(C)(C)CCCC3(C)O2 (configuration not stated) | > 200 µM | 174 µM |  |
| Nc1ncnc2c1ncn2CC(=O)NCCCO | > 200 µM | > 200 µM |  |
| C=CCC(/C=C\CC)(C(=O)O)C(=O)O | > 661 µM | > 661 µM |  |
| Cc1ccc(CC(Cc2ccc(C)cc2C(=O)O)C(=O)O)cc1 (configuration not stated) | > 200 µM | > 200 µM |  |
| Cn1c2ccc3cc2c(=S)c2cc(ccc21)OCCOCCOCCOCCOCCO3 | > 200 µM | 61.7 µM |  |
| COc1ccc(NC(=S)NNC(=O)c2nsc3ccccc23)cc1 | > 138 µM | 19.1 µM |  |
| COc1cccc(NC(=O)CC(=O)Nc2cccc(OC)c2)c1 | > 200 µM | > 200 µM |  |
| CCNC(=O)NNc1ncnc2c1c(-c1ccc(Cl)cc1)cn2-c1ccc(C)cc1 | > 200 µM | 35.5 µM |  |
| C/C=C1\CC2C(=O)CCC2C2c3ccccc3OC12 (configuration not stated) | > 200 µM | > 200 µM |  |
